In US9421175B2, “Prevention of retinopathy by inhibition of the visual cycle” (priority 2004, dated 2016):

Assays:
Format in all cases: in vivo, rat
Sprague-Dawley rats [1] = experiment: Resistance to retinal ischemia 1 h after intraperitoneal isotretinoin (scotopic ERG 1 week later); details: isotretinoin 5 mg/kg i.p. in DMSO 1 h before 1 h ischemia (IOP 110 mmHg), 5 treated rats
Description: Purpose: To evaluate the efficacy of isotretinoin in the prevention of retinal functional loss following 1 h of ocular ischemia induced by elevation of the intraocular pressure beginning 1 h after the intraperitoneal administration of isotretinoin.
(§1) Material and methods: Of 12 Sprague-Dawley rats, 7 received intraperitoneal saline injection and 5 received intraperitoneal isotretinoin 5 mg/kg in dimethyl sulfoxide (DMSO) 1 h before intraocular pressure elevation during full anaesthesia using cannulation of the anterior chamber in one eye and infusion of balanced saline solution at a pressure of 110 mmHg. The fellow eye was not subjected to ischemia. The animals were kept in ambient room light before and during ischemia. Retinal function was assessed 1 week later by scotopic and mesopic full-field electroretinography (ERG). The study adhered to the ARVO resolution on animal welfare.

Sprague-Dawley rats [2] = experiment: Resistance to retinal ischemia 18 h after intraperitoneal isotretinoin (scotopic ERG 1 week later)
Description: Purpose: To evaluate the efficacy of isotretinoin in the prevention of retinal functional loss following 1 h ischemia induced by elevation of the intraocular pressure beginning 18 h after the intraperitoneal administration of isotretinoin.
as §1, with “methods: Intraperitoneal” for “methods: Of 12 Sprague-Dawley rats, 7 received intraperitoneal saline injection and 5 received intraperitoneal”, “(DMSO) was given to 6 Sprague-Dawley rats 18” for “(DMSO) 1”, “during general anesthesia” for “during full anaesthesia”

rats [3] = experiment: Retinal vessel diameter after intravitreal isotretinoin (digital fundus photography); details: single intravitreal injection of isotretinoin 2.5 μg in 10 μl DMSO; 6 h later, dark adapted; 4 eyes; SD 4.2%; p=0.04 vs placebo
Description: Purpose: To assess the effect of intravitreal isotretinoin on retinal vessel diameters in rats, the vein diameter acting as a marker of retinal flow and metabolism.
Methods: In 6 animals, one eye received a single intravitreal injection of isotretinoin 2.5 μg in 10 μl dimethyl sulfoxide (DMSO). The fellow eye received a placebo injection of 10 μl DMSO. Retinal vessel diameter was recorded 6 h later in both eyes after the rats had dark adapted using digital fundus photography in red illumination and assessed using computerized image analysis. All procedures were performed in general anesthesia and the study adhered to the ARVO resolution on animal welfare.

rats [4] = experiment: Experimental retinal vein occlusion, blood-retina barrier permeability by vitreous fluorometry; details: i.p. isotretinoin 5 mg/mild in DMSO for five days before examination, 14 days after photocoagulation; 7 rats; p<0.012
Description: Purpose: To assess the effect of isotretinoin on the integrity of the blood-retina barrier in experimental retinal vein occlusion. Material and methods: Occlusion of all retinal veins near the rim of the optic nerve head was induced by laser photocoagulation in 14 rats. Blood-retina barrier permeability was measured using vitreous fluorometry 2 weeks later. In 7 rats, intraperitoneal isotretinoin 5 mg/mild in dimethyl sulfoxide (DMSO) was administered for five days before the examination of vascular leakage 14 days after photocoagulation. The study adhered to the ARVO resolution on animal welfare.

CC1=C(/C=C/C(C)=C/C=C/C(C)=C\C(=O)O)C(C)(C)CCC1 [isotretinoin, 13-cis-retinoic acid]
animals with flat ERG, of 5 eyes subjected to ischemia (Sprague-Dawley rats [1]): 2 animals | animals with intact scotopic ERG, of 5 eyes subjected to ischemia (Sprague-Dawley rats [1]): 3 animals | eyes subjected to ischemia with normal scotopic ERG amplitudes (Sprague-Dawley rats [2]; isotretinoin 5 mg/kg i.p. in DMSO 18 h before 1 h ischemia (IOP 110 mmHg), ERG 1 week later, 6 treated rats): 6 eyes | scotopic ERG amplitudes (Sprague-Dawley rats [2]; isotretinoin 5 mg/kg i.p. in DMSO 18 h before 1 h ischemia, eyes subjected to ischemia, 1 week after ischemia): 60-120 μV | change in retinal vein diameter (rats [3]): −9% | retinal vascular leakage compared to untreated animals (rats [4]): lower
